{
  "source": "PubChem BioAssay AID1224866",
  "about": "(Xiaojiang Lab, Kunming Institute of Botany, CAS, 2016)",
  "experiment_in_all_cases": "nuclear TFEB, TFE3 and cytosolic ZKSCAN3 localization – imaging, HeLa, EGFP fusions (AID 1224866)",
  "key": {"[1]": {"system": "HeLa TFEB-EGFP nuclear translocation, imaging", "details": "stronger effect = higher value; dose or concentration not given here"}, "[2]": {"molecular_target": "Transcription factor E3 (Homo sapiens) (UniProt P19532)", "details": "HeLa; measured here: TFE3 nuclear translocation; stronger effect = higher value; dose or concentration not given here"}, "[3]": {"molecular_target": "Zinc finger protein with KRAB and SCAN domains 3 (Homo sapiens) (UniProt Q9BRR0)", "details": "HeLa EGFP-ZKSCAN3 cytoplasmic translocation; stronger effect = higher value; dose or concentration not given here"}},
  "data": [
    {"compound": "CCCCCCCCCCCC(=O)O[C@@]12C[C@@H](C)[C@]34C=C(C)[C@H](OC(=O)C(C)C(C)C)[C@@]3(O)[C@H](O)C(CO)=C[C@@H](C4=O)[C@@H]1C2(C)C", "note": "(stereo not given in full)", "values": [
      {"measurement": "cells with nuclear TFEB-EGFP", "setting": "[1]", "value": 66.1, "unit": "%"},
      {"measurement": "cells with nuclear EGFP-TFE3", "setting": "[2]", "value": 4.3, "unit": "%"},
      {"measurement": "cells with cytosolic EGFP-ZKSCAN3", "setting": "[3]", "value": 69.7, "unit": "%"}
    ]},
    {"compound": "CC=C(C)C(=O)O[C@H]1C(C)=C[C@]23C(=O)[C@H](C=C(C)[C@@H](O)[C@]12O)[C@H]1[C@@H](C[C@H]3C)C1(C)C", "values": [
      {"measurement": "cells with nuclear TFEB-EGFP", "setting": "[1]", "value": 80.8, "unit": "%"},
      {"measurement": "cells with nuclear EGFP-TFE3", "setting": "[2]", "value": 5.4, "unit": "%"},
      {"measurement": "cells with cytosolic EGFP-ZKSCAN3", "setting": "[3]", "value": 76.9, "unit": "%"}
    ]},
    {"compound": "CC=C(C)C(=O)O[C@@H]1C(C)=C[C@H]2C(=O)[C@]3(C=C(C)[C@H](O)[C@@]13O)[C@H](C)C[C@@H]1[C@H]2C1(C)C", "values": [
      {"measurement": "cells with nuclear TFEB-EGFP", "setting": "[1]", "value": 85.6, "unit": "%"},
      {"measurement": "cells with nuclear EGFP-TFE3", "setting": "[2]", "value": 5.2, "unit": "%"},
      {"measurement": "cells with cytosolic EGFP-ZKSCAN3", "setting": "[3]", "value": 83.6, "unit": "%"}
    ]},
    {"compound": "CCCCCCCCCCCC(=O)O[C@@]12C[C@@H](C)[C@]34C=C(C)[C@H](O)[C@@]3(O)[C@H](O)C(COC(=O)C(C)C(C)C)=C[C@@H](C4=O)[C@@H]1C2(C)C", "note": "(stereo not given in full)", "values": [
      {"measurement": "cells with nuclear TFEB-EGFP", "setting": "[1]", "value": 62, "unit": "%"},
      {"measurement": "cells with nuclear EGFP-TFE3", "setting": "[2]", "value": 3.9, "unit": "%"},
      {"measurement": "cells with cytosolic EGFP-ZKSCAN3", "setting": "[3]", "value": 67.4, "unit": "%"}
    ]},
    {"compound": "CC1=C[C@H]2C(=O)[C@]3(C=C(C)[C@H](O)[C@@]3(O)[C@@H]1OC(=O)c1ccccc1)[C@H](C)C[C@@H]1[C@H]2C1(C)C", "values": [
      {"measurement": "cells with nuclear TFEB-EGFP", "setting": "[1]", "value": 81.3, "unit": "%"},
      {"measurement": "cells with nuclear EGFP-TFE3", "setting": "[2]", "value": 4.2, "unit": "%"},
      {"measurement": "cells with cytosolic EGFP-ZKSCAN3", "setting": "[3]", "value": 79.2, "unit": "%"}
    ]},
    {"compound": "CCCCCCCCCCCCCCCC(=O)OCC1=C[C@H]2C(=O)[C@]3(C=C(C)[C@H](O)[C@@]3(O)[C@@H]1O)[C@H](C)C[C@@H]1[C@H]2C1(C)C", "values": [
      {"measurement": "cells with nuclear TFEB-EGFP", "setting": "[1]", "value": 66.6, "unit": "%"},
      {"measurement": "cells with nuclear EGFP-TFE3", "setting": "[2]", "value": 5.1, "unit": "%"},
      {"measurement": "cells with cytosolic EGFP-ZKSCAN3", "setting": "[3]", "value": 74.3, "unit": "%"}
    ]},
    {"compound": "CC=C(C)C(=O)O[C@@H]1C(C)=C[C@H]2C(=O)[C@]3(C=C(C)[C@H](OC(C)=O)[C@@]13O)[C@H](C)C[C@@H]1[C@H]2C1(C)C", "values": [
      {"measurement": "cells with nuclear TFEB-EGFP", "setting": "[1]", "value": 70.3, "unit": "%"},
      {"measurement": "cells with nuclear EGFP-TFE3", "setting": "[2]", "value": 4.2, "unit": "%"},
      {"measurement": "cells with cytosolic EGFP-ZKSCAN3", "setting": "[3]", "value": 75, "unit": "%"}
    ]},
    {"compound": "CCCCCCCCCCCCCC(=O)OCC1=C[C@H]2C(=O)[C@]3(C=C(C)[C@H](O)[C@@]3(O)[C@@H]1O)[C@H](C)C[C@@H]1[C@H]2C1(C)C", "values": [
      {"measurement": "cells with nuclear TFEB-EGFP", "setting": "[1]", "value": 67.2, "unit": "%"},
      {"measurement": "cells with nuclear EGFP-TFE3", "setting": "[2]", "value": 4.8, "unit": "%"},
      {"measurement": "cells with cytosolic EGFP-ZKSCAN3", "setting": "[3]", "value": 76.4, "unit": "%"}
    ]},
    {"compound": "CC1=C[C@H]2C(=O)[C@]3(C=C(C)[C@H](OC(=O)c4ccccc4)[C@@]3(O)[C@@H]1O)[C@H](C)C[C@@H]1[C@H]2C1(C)C", "values": [
      {"measurement": "cells with nuclear TFEB-EGFP", "setting": "[1]", "value": 65.8, "unit": "%"},
      {"measurement": "cells with nuclear EGFP-TFE3", "setting": "[2]", "value": 4, "unit": "%"},
      {"measurement": "cells with cytosolic EGFP-ZKSCAN3", "setting": "[3]", "value": 68.4, "unit": "%"}
    ]},
    {"compound": "CC(=O)O[C@@H]1C(C)=C[C@H]2C(=O)[C@]3(C=C(C)[C@H](OC(=O)c4ccccc4)[C@@]13O)[C@H](C)C[C@@H]1[C@H]2C1(C)C", "values": [
      {"measurement": "cells with nuclear TFEB-EGFP", "setting": "[1]", "value": 74.5, "unit": "%"},
      {"measurement": "cells with nuclear EGFP-TFE3", "setting": "[2]", "value": 4.6, "unit": "%"},
      {"measurement": "cells with cytosolic EGFP-ZKSCAN3", "setting": "[3]", "value": 74.1, "unit": "%"}
    ]}
  ]
}
